These are literature values, as cited in patent US20240180809A1, “METHOD FOR DYEING KERATIN MATERIAL, INCLUDING THE USE OF AN ORGANIC C1-C6 ALKOXY SILANE, A DYEING COMPOUND, AND A HEAT TREATMENT” (Henkel AG & Co. KGaA, priority 2021, published 2024).

Regarding `CCN(Cc1cccc(S(=O)(=O)[O-])c1)c1ccc(C(=C2C=CC(=[N+](CC)Cc3cccc(S(=O)(=O)[O-])c3)C=C2)c2ccccc2S(=O)(=O)[O-])cc1.[Na+].[Na+]` [Acid Blue 9], the water solubility entry (25° C.) is given as “more than 20 wt. %”. Turning to `O=S(=O)([O-])c1ccc(N=Nc2c(O)ccc3ccccc23)cc1.[Na+]` [Acid Orange 7, sodium salt of 4-[(2-hydroxy-1-naphthyl)azo]benzene sulphonate], the solubility in water entry (25° C.) is on record as “more than 7 g/L”. `Nc1cc(S(=O)(=O)[O-])cc2cc(S(=O)(=O)[O-])c(N=Nc3ccccc3)c(O)c12.[Na+].[Na+]` [Acid Red 33, disodium salt of 5-amino-4-hydroxy-3-(phenylazo)-naphthalene-2,7-disulfonate]: the solubility in water (25° C.) was 2.5 mg/mL. Consider `O=C([O-])c1c(Cl)c(Cl)c(Cl)c(Cl)c1-c1c2cc(Br)c(=O)c(Br)c-2oc2c(Br)c([O-])c(Br)cc12.[Na+].[Na+]` [Acid Red 92, disodium salt of 3,4,5,6-tetrachloro-2-(1,4,5,8-tetrabromo-6-hydroxy-3-oxanthene-9-yl) benzoic acid], for which the solubility in water result (25° C.) was “greater than 10 g/L”. With `O=C([O-])C1=NN(c2ccc(S(=O)(=O)[O-])cc2)C(=O)C1N=Nc1ccc(S(=O)(=O)[O-])cc1.[Na+].[Na+].[Na+]` (stereo not drawn) [Acid Yellow 23, trisodium salt of 4,5-dihydro-5-oxo-1-(4-sulfophenyl)-4-((4-sulfophenyl)azo)-1H-pyrazole-3-carboxylic acid], where the note is “in water at 25° C.”, the “solubility in water (in words)” value was “readily soluble”.

For “mixture of the sodium salts of mono- and sis-sulfonic acids of 2-(2-quinolyl)-1H-indene-1,3(2H)-dione [Acid Yellow 3]”, the solubility in water (25° C.) was 20 mg/mL.
